Source: patent US10640495B2, “Heterocycle derivatives having TrkA inhibitory activity” (Shionogi & Co., Ltd., priority 2015, dated 2020)

What follows are compounds tested against human TrkA (Homo sapiens (Human), UniProt P04629) (assay: Human TrkA inhibition assay (Test Example 2)). Settings: Table 152, human TrkA inhibition; read-out: IC50_nM.
Chain of human TrkA (P04629 440-796): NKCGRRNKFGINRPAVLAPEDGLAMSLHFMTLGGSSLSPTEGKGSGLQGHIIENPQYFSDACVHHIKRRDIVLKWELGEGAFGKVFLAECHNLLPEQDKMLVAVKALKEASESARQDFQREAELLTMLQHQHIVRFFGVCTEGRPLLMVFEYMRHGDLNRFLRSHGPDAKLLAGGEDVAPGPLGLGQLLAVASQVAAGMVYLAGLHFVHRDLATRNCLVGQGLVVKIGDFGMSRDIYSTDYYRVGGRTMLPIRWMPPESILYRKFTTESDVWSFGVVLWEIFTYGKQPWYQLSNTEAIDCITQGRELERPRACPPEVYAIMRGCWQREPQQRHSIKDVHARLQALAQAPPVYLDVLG
Format: biochemical
Procedure, shortened: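 Recombinant TrkA (1 nmol/L) was preincubated 15 min at room temperature with compound in HEPES/MgCl2/DTT buffer, then reacted with FL-peptide 27 (1.5 μmol/L) and ATP (500 μmol/L) for 120 min at 37 °C. After EDTA stop, substrate phosphorylation was read by microfluidic mobility shift. IC50 came from logistic regression over 3-fold dilution series.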
`COCCC1C[C@H](NC(=O)Nc2c(C)c(-c3cnn(C)c3)nn2-c2ccccc2)[C@@H](c2ccccc2)O1` (stereo partly shown) [Compound I-17] was tested, and the IC50 was over 1000 nM.
`COCC[C@H]1C[C@H](NC(=O)Nc2c(C)c(-c3cnn(C)c3)nn2-c2ccccc2)[C@@H](c2ccc(F)c(F)c2)O1` [Compound I-24] was tested, and the IC50 was over 1000 nM.
For `COCCN1C[C@@H](NC(=O)Nc2c(C)c(-c3ccc(OCc4ccccc4)nc3)nn2-c2ccccc2)[C@H](c2ccc(F)c(F)c2)O1` (racemic) [Compound I-27], the IC50 was under 100 nM.
`COCCC1C[C@@H](NC(=O)Nc2c(C)c(-c3ccc(C(=O)OC(C)(C)C)cc3)nn2-c2ccccc2)[C@H](c2ccccc2)O1` (stereo partly shown) [Compound I-13] gave an IC50 of under 100 nM.

Same assay, conditions: Table 153, human TrkA inhibition; read-out: IC50
Compound `COCCN1C[C@@H](NC(=O)Nc2c(C)c(-c3cnc(N=S(C)(C)=O)c(C)c3)nn2-c2ccccc2)[C@H](c2ccc(F)c(F)c2)O1` (racemic) [Compound I-92] has an IC50 of under 100 nM.
`COCCN1C[C@@H](NC(=O)Nc2c(C)c(-c3cc(C)c(=O)n(C)c3)nn2-c2ccccc2)[C@H](c2cnc(F)c(F)c2)O1` (racemic) [Compound I-71] was tested, and the IC50 was under 100 nM.
In the case of `COCCN1C[C@@H](NC(=O)Nc2c(C)c(-c3cnc4c(c3)c(C)nn4C)nn2-c2ccccc2)[C@H](c2ccnc(F)c2)O1` (racemic) [Compound I-114], the IC50 is reported as under 100 nM.
In the case of `COCC[C@@H]1C[C@@H](NC(=O)Nc2c(C)c(C3=CCN(C(=O)CO)CC3)nn2-c2ccccc2)[C@H](c2ccc(F)c(F)c2)O1` [Compound I-59], the IC50 is reported as under 100 nM.
`CNC(=O)c1cc(-c2cc(NC(=O)N[C@@H]3CN(CCOC)O[C@H]3c3ccnc(F)c3)n(C)n2)cnc1OC` (racemic) [Compound I-95] gave an IC50 of over 1000 nM.
Compound `COCCN1C[C@@H](NC(=O)Nc2c(C)c(-c3ccn4nc(C)nc4c3)nn2-c2ccccc2)[C@H](c2ccnc(F)c2)O1` (racemic) [Compound I-156] has an IC50 of under 100 nM.

Same assay, conditions: Table 154, human TrkA inhibition; read-out: IC50
Work on `COCCN1C[C@@H](NC(=O)Nc2c(C)c(-c3ccc(N=S(C)(C)=O)nc3)nn2-c2ccccc2)[C@H](c2ccc(F)c(F)c2)O1` [Compound I-186] yielded an IC50 of under 100 nM.
In the case of `COCCN1C[C@@H](NC(=O)Nc2c(C)c(-c3cnc(C(N)=O)c(OC)c3)nn2-c2ccccc2)[C@H](c2ccnc(F)c2)O1` (racemic) [Compound I-317], the IC50 is reported as under 100 nM.
Compound `COCCN1C[C@@H](NC(=O)Nc2c(C)c(-c3cnc4c(c3)c(=O)on4C)nn2-c2ccccc2)[C@H](c2ccnc(F)c2)O1` (racemic) [Compound I-269] has an IC50 of under 100 nM.
Compound `COCCN1C[C@@H](NC(=O)Nc2c(C)c(-c3cnc(C(N)=O)c(F)c3)nn2-c2ccccc2)[C@H](c2cnc(F)c(F)c2)O1` (racemic) [Compound I-311] has an IC50 of under 100 nM.
Compound `COCCN1C[C@@H](NC(=O)Nc2c(C)c(-c3cnc(Cl)nc3)nn2-c2ccccc2)[C@H](c2ccnc(F)c2)O1` (racemic) [Compound I-249] has an IC50 of under 100 nM.
With `COCCN1C[C@@H](NC(=O)Nc2c(C)c(-c3cnc4c(c3)OCCN4)nn2-c2ccccc2)[C@H](c2ccnc(F)c2)O1` (racemic) [Compound I-281] the IC50 was under 100 nM.
For `CNC(=O)c1cc(-c2nn(-c3ccccc3)c(NC(=O)N[C@@H]3CN(CCOC)O[C@H]3c3ccnc(F)c3)c2C)cnc1OC` [Compound I-191], the IC50 was under 100 nM.

Same assay, conditions: Table 155, human TrkA inhibition; read-out: IC50
`COCCN1C[C@@H](NC(=O)Nc2c(C)c(-n3cnc(C)c3)nn2-c2ccccc2)[C@H](c2ccnc(F)c2)O1` (racemic) [Compound I-346] was tested, and the IC50 was under 100 nM.
For `COCCOc1ncc(-c2nn(-c3ccccc3)c(NC(=O)N[C@@H]3CN(CCOC)O[C@H]3c3ccnc(F)c3)c2C)cn1` (racemic) [Compound I-511], the IC50 was under 100 nM.
Work on `COCCN1C[C@@H](NC(=O)Nc2c(C)c(-c3cnc4c(c3)OCC(=O)N4)nn2-c2ccccc2)[C@H](c2cnc(F)c(F)c2)O1` (racemic) [Compound I-337] yielded an IC50 of under 100 nM.
`COCCN1C[C@@H](NC(=O)Nc2c(C)c(-c3ccc4c(c3)NCCO4)nn2-c2ccccc2)[C@H](c2ccnc(F)c2)O1` (racemic) [Compound I-382] showed an IC50 of under 100 nM.
`COCCN1C[C@@H](NC(=O)Nc2c(C)c(-c3cnc4c(c3)CN(C)C4=O)nn2-c2ccccc2)[C@H](c2ccnc(F)c2)O1` (racemic) [Compound I-343] showed an IC50 of under 100 nM.
Compound `COCCN1C[C@@H](NC(=O)Nc2c(C)c(-c3cnc4c(c3)c(C(=O)NC3CCN(C)CC3)nn4C)nn2-c2ccccc2)[C@H](c2ccnc(F)c2)O1` (racemic) [Compound I-376] has an IC50 of under 100 nM.
With `COCCN1C[C@@H](NC(=O)Nc2c(C)c(-c3cnc(C4(O)COC4)nc3)nn2-c2ccccc2)[C@H](c2ccnc(F)c2)O1` (racemic) [Compound I-360] the IC50 was under 100 nM.
In the case of `COCCN1C[C@@H](NC(=O)Nc2c(C)c(-c3cc(C)c4nccn4c3)nn2-c2ccccc2)[C@H](c2ccnc(F)c2)O1` (racemic) [Compound I-348], the IC50 is reported as under 100 nM.
For `COCCN1C[C@@H](NC(=O)Nc2c(C)c(-c3cnc(N4CCN(C)CC4)nc3)nn2-c2ccccc2)[C@H](c2ccnc(F)c2)O1` (racemic) [Compound I-379], the IC50 was under 100 nM.
`COCCN1C[C@@H](NC(=O)Nc2c(C)c(-c3cnc(C)nc3)nn2-c2ccccc2)[C@H](c2cc(F)nc(F)c2)O1` [Compound I-361] showed an IC50 of under 100 nM.
Work on `COCCN1C[C@@H](NC(=O)Nc2c(C)c(-c3cnc(OC4CCOCC4)nc3)nn2-c2ccccc2)[C@H](c2ccnc(F)c2)O1` (racemic) [Compound I-443] yielded an IC50 of under 100 nM.
`COCCN1C[C@@H](NC(=O)Nc2c(C)c(-c3cnc(N4CCOCC4)nc3)nn2-c2ccccc2)[C@H](c2ccnc(F)c2)O1` (racemic) [Compound I-324] showed an IC50 of under 100 nM.
With `COCCN1C[C@@H](NC(=O)Nc2c(C)c(-c3ccc4nc(CO)cn4c3)nn2-c2ccccc2)[C@H](c2ccnc(F)c2)O1` (racemic) [Compound I-347] the IC50 was under 100 nM.
`COCCN1C[C@@H](NC(=O)Nc2c(C)c(OCC3CN(C(C)=O)CCO3)nn2-c2ccccc2)[C@H](c2ccnc(F)c2)O1` (stereo partly shown) [Compound I-504] gave an IC50 of under 100 nM.
For `COCCN1C[C@@H](NC(=O)Nc2c(C)c(-c3cnc(N4CC(F)(F)C4)nc3)nn2-c2ccccc2)[C@H](c2ccnc(F)c2)O1` (racemic) [Compound I-481], the IC50 was under 100 nM.
With `COCCN1C[C@@H](NC(=O)Nc2c(C)c(Oc3ccnc(C(F)(F)F)c3)nn2-c2ccccc2)[C@H](c2ccnc(F)c2)O1` (racemic) [Compound I-441] the IC50 was 100 to 1000 nM.

Same assay, conditions: Table 156, human TrkA inhibition; read-out: IC50
In the case of `CCN1C[C@@H](NC(=O)Nc2c(C)c(OCC3CCNCC3)nn2-c2ccccc2)[C@H](c2ccc(F)cc2)O1` (racemic) [Compound I-562], the IC50 is reported as under 100 nM.

Same assay, conditions: Table 157, human TrkA inhibition; read-out: IC50
In the case of `COCCN1C[C@@H](NC(=O)Nc2c(C)c(-c3cnc(N(C)CCOC)nc3)nn2-c2ccccc2)[C@H](c2ccnc(F)c2)O1` (racemic) [Compound I-588], the IC50 is reported as under 100 nM.
`CCN1C[C@@H](NC(=O)Nc2c(C)c(OCCC3CCN(C)CC3)nn2-c2ccccc2)[C@H](c2ccc(F)c(F)c2)O1` (racemic) [Compound I-672] showed an IC50 of under 100 nM.
For `CCN1CCC(COc2nn(-c3ccccc3)c(NC(=O)N[C@@H]3CN(CC)O[C@H]3c3ccc(F)c(F)c3)c2C)CC1` (racemic) [Compound I-609], the IC50 was under 100 nM.
`COCCN1C[C@@H](NC(=O)Nc2c(C)c(CN(C)C)nn2-c2ccccc2)[C@H](c2ccc(F)c(F)c2)O1` [Compound I-640] gave an IC50 of 100 to 1000 nM.
`CCN1C[C@@H](NC(=O)Nc2c(C)c(OC3CCN(C)CC3)nn2-c2ccccc2)[C@H](c2ccc(F)c(F)c2)O1` (racemic) [Compound I-631] gave an IC50 of under 100 nM.
Compound `COCCN1C[C@@H](NC(=O)Nc2c(C)c(OC3CCN(C(=O)OC(C)(C)C)CC3)nn2-c2ccccc2)[C@H](c2ccc(F)c(F)c2)O1` [Compound I-601] has an IC50 of under 100 nM.
`CCN1C[C@@H](NC(=O)Nc2c(C)c(OCCCC(=O)NCC(C)(C)O)nn2-c2ccccc2)[C@H](c2ccc(F)c(F)c2)O1` (racemic) [Compound I-669] gave an IC50 of under 100 nM.

Same assay, conditions: human TrkA 1 nmol/L, ATP 500 μmol/L, 120 min at 37° C.; read-out: IC50 values (TrkA phosphorylation inhibition)
Compound `CCN1C[C@@H](NC(=O)Nc2c(C)c(C3=CCN(C(=O)CO)CC3)nn2-c2ccccc2)[C@H](c2ccc(F)c(F)c2)O1` (racemic) [Compound I-655] has an IC50 of 5 nM.
With `COCCN1C[C@@H](NC(=O)Nc2c(C)c(-c3cnc(C)nc3)nn2-c2ccccc2)[C@H](c2ccnc(F)c2)O1` (racemic) [Compound I-47] the IC50 was 4 nM.
Work on `COCCN1C[C@@H](NC(=O)Nc2c(C)c(-c3cnc(OC)nc3)nn2-c2ccccc2)[C@H](c2cnc(F)c(F)c2)O1` [Compound I-211] yielded an IC50 of 1.5 nM.
`COCCN1C[C@@H](NC(=O)Nc2c(C)c(-c3cnc4c(c3)OCC(=O)N4)nn2-c2ccccc2)[C@H](c2ccnc(F)c2)O1` (racemic) [Compound I-279] was tested, and the IC50 was 2 nM.
With `COCCN1C[C@@H](NC(=O)Nc2c(C)c(-c3cc(C(=O)NC4CCOCC4)c(=O)n(C)c3)nn2-c2ccccc2)[C@H](c2ccnc(F)c2)O1` (racemic) [Compound I-108] the IC50 was 1 nM.
`COCCN1C[C@@H](NC(=O)Nc2c(C)c(-c3cnc(OC)nc3)nn2-c2ccccc2)[C@H](c2ccnc(F)c2)O1` (racemic) [Compound I-119] was tested, and the IC50 was 4 nM.
`COCCN1C[C@@H](NC(=O)Nc2c(C)c(OCC(C)(C)O)nn2-c2ccccc2)[C@H](c2cnc(F)c(F)c2)O1` [Compound I-82] gave an IC50 of 22 nM.
Work on `COCCN1C[C@@H](NC(=O)Nc2c(C)c(C3=CCN(C(C)=O)CC3)nn2-c2ccccc2)[C@H](c2ccc(F)c(F)c2)O1` [Compound I-39] yielded an IC50 of 0.48 nM.
In the case of `COCCN1C[C@@H](NC(=O)Nc2c(C)c(-c3cnc4c(c3)[nH]c(=O)n4C)nn2-c2ccccc2)[C@H](c2cnc(F)c(F)c2)O1` [Compound I-258], the IC50 is reported as 0.48 nM.
With `COCCN1C[C@@H](NC(=O)Nc2c(C)c(-c3cnc4c(cnn4C)c3)nn2-c2ccccc2)[C@H](c2ccnc(F)c2)O1` [Compound I-65] the IC50 was 0.92 nM.
With `CCN1C[C@@H](NC(=O)Nc2c(C)c(-c3ccc(OC)nc3)nn2-c2ccccc2)[C@H](c2ccc(F)c(F)c2)O1` (racemic) [Compound I-627] the IC50 was 4.8 nM.
